Measurements from patent US20060188938A1, “Compounds for inhibiting beta-amyloid production and methods of identifying the compounds” (priority 2005, published 2006).
Blank lines part the entries; values can stand above or below the compound they belong to.

Columns and labels:
[1] = test system: β-amyloid production by 7W WT APP751 CHO cells; assay: Screening of dihydropyridine compounds of Table 2, Aβ1-40 and Aβ1-42 (Example 5); assay type: cell-based, Chinese hamster; details: for concentration of Aβ1-40 or Aβ1-42 compared to control: 3, 10, 30 and 100 μM, 24 hours (FIGS. 22A, 22B, 23A, 23B); for concentration of Aβ1-40 compared to control: 3 and 10 μM, 24 hours (FIG. 24)
Procedure: (§1) The 7W WT APP751 CHO cells were plated in 24-well cell culture plates in quadruplicate, containing 1 ml of culture medium, and treated with various calcium channel blocker compounds for 4 hours, 24 hours or 48 hours at 37° C. and 5% CO2. All test compounds were diluted in dimethyl sulfoxide (DMSO) before being added to the cultured confluent 7W WT APP751 CHO cells. The culture medium was collected and diluted 5-fold for the 4 hours assay and 50-fold for the 24 hour assay before being assayed by ELISAs for Aβ1-40 and Aβ1-42, respectively. Concentrations of Aβ1-40 and Aβ1-42, expressed in pg/ml, were determined using commercially available ELISAs (Biosource, CA) in a colorimetric assay using labeled antibodies detected spectrophotometrically.
The screening of dihydropyridine compounds was conducted according to the procedure described in Example 1. Each compound was added to confluent cells to a final concentration of 3, 10, 30 or 100 μM and tested. Each of these compounds was added to confluent cells to a final concentration of 3 μM (noted as “C” in FIG. 24) or 10 μM (noted as “B” in FIG. 24).

[2] = test system: β-amyloid production by 7W WT APP751 CHO cells; assay: Measurement of Aβ1-40 and Aβ1-42 by ELISA in culture medium (Example 1, calcium channel blockers); assay type: cell-based, Chinese hamster
Procedure: Chinese hamster ovary (CHO) cells, stably transfected with human APP751 (7W WT APP751 CHO cells) were used. See, e.g., Koo and Squazzo, J. Biol. Chem., Vol. 269, Issue 26, 17386-17389, July, 1994. The cells were maintained in DMEM medium supplemented with 10% fetal bovine serum and 1× mixture of penicillin/streptomycin/fungizone/glutamine mixture (Cambrex, MD) geneticin as selecting agent in 75 cm^2 cell culture flasks.
as §1
G-sec Inhib XIX, SKF 96365, 2-APB, felodipine, FPL, clotrimazole, tetrandrine, R24571, and econazole are available, as Calbiochem products from EMD Biosciences, Inc., La Jolla, Calif.; nilvadipine, nitrendipine and amlodipine (amlodipine besylate) are available, e.g., from Fujisawa, Osaka, Japan; thapsigargin, BAPTA-AM and TA9 (Tyrphostin A9) are available, e.g., as a Sigma product from Sigma-Aldrich Corp., St. Louis, Mo.; and felodipine, diltiazem, S(−)Bay K8644, R(+)Bay K8644, MRS 1845, SR 33805, loperamide, and isradipine are available from Tocris Cookson Inc., Ellisville, Mo.

Tg APPsw mice = Tg APPsw mice given ibuprofen; cited from earlier work
[3] = 30 μM, cells plated at low density, 24 hours (FIG. 1C)
[4] = 30 μM, cells plated at low density, 48 hours (FIG. 1D)

Structure (SMILES): COCCOC(=O)C1=C(C)NC(C)=C(C(=O)OCCOC)C1c1ccccc1Cl [Example 2-19]
concentration of Aβ1-40 or Aβ1-42 compared to control [1]: decreased

Structure (SMILES): CCOC(=O)C1=C(C)NC(C)=C(C(=O)OCC)C1c1ccccc1Br [Example 2-23, Diethyl 4-(2-bromophenyl)-1,4-dihydro-2,6-dimethylpyridine-3,5-dicarboxylate]
concentration of Aβ1-40 or Aβ1-42 compared to control [1]: decreased

Structure (SMILES): CCOC(=O)C1=C(C)NC(C)=C(C(=O)OCC)C1c1ccccc1F [Example 2-27, Diethyl 4-(2-fluorophenyl)-1,4-dihydro-2,6-dimethylpyridine-3,5-dicarboxylate]
concentration of Aβ1-40 or Aβ1-42 compared to control [1]: decreased

melting point: 201 to 202 °C
Structure (SMILES): CC1=C(C(=O)OC(C)(C)C)C(c2ccccc2F)C(C(=O)OC(C)(C)C)=C(C)N1 [Example 2-28, Di-tert-butyl 4-(2-fluorophenyl)-1,4-dihydro-2,6-dimethylpyridine-3,5-dicarboxylate]
concentration of Aβ1-40 or Aβ1-42 compared to control [1]: decreased

melting point: 120 to 121 °C
Structure (SMILES): CCOC(=O)C1=C(C)NC(C)=C(C(=O)OCC)C1c1ccccc1[N+](=O)[O-] [Example 2-29, Diethyl 1,4-dihydro-2,6-dimethyl-4-(2-nitrophenyl)pyridine-3,5-dicarboxylate]
concentration of Aβ1-40 or Aβ1-42 compared to control [1]: decreased

Structure (SMILES): CC1=C(C(=O)OC(C)(C)C)C(c2ccccc2Br)C(C(=O)OC(C)(C)C)=C(C)N1 [Example 2-32, Di-tert-butyl 4-(2-bromophenyl)-1,4-dihydro-2,6-dimethylpyridine-3,5-dicarboxylate]
concentration of Aβ1-40 or Aβ1-42 compared to control [1]: decreased

Structure (SMILES): CC1=C(C(=O)OC(C)(C)C)C(c2ccccc2[N+](=O)[O-])C(C(=O)OC(C)(C)C)=C(C)N1 [Example 2-33, Di-tert-butyl 1,4-dihydro-2,6-dimethyl-4-(2-nitrophenyl)pyridine-3,5-dicarboxylate]
concentration of Aβ1-40 or Aβ1-42 compared to control [1]: decreased

Structure (SMILES): CCOC(=O)C1=C(C)NC(C)=C(C(=O)OCC)C1c1cccc(F)c1F [Example 3-22]
concentration of Aβ1-40 compared to control [1]: decreased

Structure (SMILES): CC1=C(C(=O)OC(C)(C)C)C(c2cccc(F)c2F)C(C(=O)OC(C)(C)C)=C(C)N1 [Example 3-23]
concentration of Aβ1-40 compared to control [1]: decreased

Structure (SMILES): CCOC(=O)C1=C(C)NC(C)=C(C(=O)OCC)C1c1ccc(Br)cc1F [Example 3-33]
concentration of Aβ1-40 compared to control [1]: decreased

Structure (SMILES): CC1=C(C(=O)OC(C)(C)C)C(c2ccc(Br)cc2F)C(C(=O)OC(C)(C)C)=C(C)N1 [Example 3-34, Di-tert-butyl 4-(4-bromo-2-fluorophenyl)-1,4-dihydro-2,6-dimethylpyridine-3,5-dicarboxylate]
concentration of Aβ1-40 compared to control [1]: decreased

Structure (SMILES): COCCOC(=O)C1=C(C)NC(C)=C(C(=O)OCCOC)C1c1cccc(Br)c1 [Example 3-37]
concentration of Aβ1-40 compared to control [1]: decreased

Structure (SMILES): COCCOC(=O)C1=C(C)NC(C)=C(C(=O)OCCOC)C1c1ccc(Br)cc1 [Example 3-38, Bis(2-methoxyethyl) 4-(4-bromophenyl)-1,4-dihydro-2,6-dimethylpyridine-3,5-dicarboxylate]
concentration of Aβ1-40 compared to control [1]: decreased

Structure (SMILES): CCOC(=O)C1=C(C)NC(C)=C(C(=O)OCC)C1c1cc(Br)ccc1F [Example 3-41, Diethyl 4-(5-bromo-2-fluorophenyl)-1,4-dihydro-2,6-dimethylpyridine-3,5-dicarboxylate]
concentration of Aβ1-40 compared to control [1]: decreased

Structure (SMILES): CC1=C(C(=O)OC(C)(C)C)C(c2cc(Br)ccc2F)C(C(=O)OC(C)(C)C)=C(C)N1 [Example 3-42]
concentration of Aβ1-40 compared to control [1]: decreased

melting point: 125 to 127 °C
Structure (SMILES): CCOC(=O)C1=C(C)NC(C)=C(C(=O)OC)C1c1ccccc1Cl (centres unmarked) [Example 56, 3-Ethyl 5-methyl 4-(2-chlorophenyl)-1,4-dihydro-2,6-dimethylpyridine-3,5-dicarboxylate]

melting point: 183 to 184 °C
Structure (SMILES): COC(=O)C1=C(C)NC(C)=C(C(C)=O)C1c1ccccc1Cl (centres unmarked) [Example 57, Methyl 5-acetyl-4-(2-chlorophenyl)-1,4-dihydro-2,6-dimethylpyridine-3-carboxylate]

melting point: 134.5 to 135.5 °C
Structure (SMILES): CCOC(=O)C1=C(C)NC(C)=C(C(=O)OC)C1c1ccccc1Br (centres unmarked) [Example 58, 3-Ethyl 5-methyl 4-(2-bromophenyl)-1,4-dihydro-2,6-dimethylpyridine-3,5-dicarboxylate]

melting point: 146 to 148 °C
Structure (SMILES): COC(=O)C1=C(C)NC(C)=C(C(C)=O)C1c1ccccc1Br (centres unmarked) [Example 59, Methyl 5-acetyl-4-(2-bromophenyl)-1,4-dihydro-2,6-dimethylpyridine-3-carboxylate]

Structure (SMILES): Clc1ccc(C(c2ccc(Cl)cc2)[n+]2ccn(CC(OCc3ccc(Cl)cc3Cl)c3ccc(Cl)cc3Cl)c2)cc1.[Cl-] (stereo not drawn) [Example R24571, 1-[bis(p-chlorophenyl)methyl]-3-[2-(2,4-di-chloro-β-(2,4-dichlorobenzyl-oxy)phenethyl)]-imidazolium chloride]
concentration of Aβ1-40 compared to controls ([2]; 5 μM (FIG. 4)): significantly decreased
concentration of total β-amyloid compared to controls ([2]; 5 μM (FIG. 4)): significantly decreased

Structure (SMILES): C#CCN1C(C)=C(C(=O)OC)C(c2cccc([N+](=O)[O-])c2)C(C(=O)OCC)=C1C (centres unmarked) [MRS 1845, N-propargylnitrendipine]
concentration of Aβ1-40 compared to controls ([2]; 30 μM (FIG. 3)): significantly decreased
concentration of total β-amyloid compared to controls ([2]; 30 μM (FIG. 3)): significantly decreased

Structure (SMILES): COc1ccc(CCCOC(Cn2ccnc2)c2ccc(OC)cc2)cc1.Cl (stereo not drawn) [SKF 96365, 1-[beta-[3-(4-methoxyphenyl)propoxy]-4-methoxyphenethyl]-1H-imidazole hydrochloride]
concentration of Aβ1-40 compared to controls ([2]; 15 μM, 24 hours (FIG. 1B)): significantly decreased
concentration of Aβ1-40 compared to controls ([2]; 30 μM (FIG. 2)): significantly decreased
concentration of Aβ1-42 compared to controls ([2]; 30 μM (FIG. 2)): significantly decreased
concentration of total β-amyloid compared to controls ([2]; 30 μM (FIG. 2)): significantly decreased
concentration of Aβ1-40 compared to controls ([2]; 30 μM, 24 hours (FIG. 1B)): significantly decreased

Structure (SMILES): Clc1ccccc1C(c1ccccc1)(c1ccccc1)n1ccnc1 [clotrimazole]
concentration of Aβ1-40 compared to controls ([2]; 20 μM (FIG. 4)): significantly decreased
concentration of total β-amyloid compared to controls ([2]; 20 μM (FIG. 4)): significantly decreased

Structure (SMILES): CC(C)Cc1ccc(C(C)C(=O)O)cc1 (centres unmarked) [ibuprofen]
β-amyloid deposits, astrocytosis, and dystrophic neurites (Tg APPsw mice): reduction

Structure (SMILES): CN(C)C(=O)C(CCN1CCC(O)(c2ccc(Cl)cc2)CC1)(c1ccccc1)c1ccccc1 [loperamide]
concentration of Aβ1-40 compared to controls ([2]; 30 μM (FIG. 4)): significantly decreased
concentration of Aβ1-42 compared to controls ([2]; 30 μM (FIG. 4)): significantly decreased
concentration of total β-amyloid compared to controls ([2]; 30 μM (FIG. 4)): significantly decreased

Structure (SMILES): COC(=O)C1=C(C#N)NC(C)=C(C(=O)OC(C)C)C1c1cccc([N+](=O)[O-])c1 (centres unmarked) [nilvadipine]
concentration of Aβ1-40 compared to controls ([2]; 30 μM (FIG. 3)): significantly decreased
concentration of total β-amyloid compared to controls ([2]; 30 μM (FIG. 3)): significantly decreased
concentration of Aβ1-40 compared to controls ([2]; 30 μM, 24 hours (FIG. 1B)): significantly decreased
concentration of Aβ1-40 compared to controls [2, 3]: significantly decreased
concentration of Aβ1-40 compared to controls [2, 4]: significantly decreased

Structure (SMILES): CCOC(=O)C1=C(C)NC(C)=C(C(=O)OC)C1c1cccc([N+](=O)[O-])c1 (centres unmarked) [nitrendipine]
concentration of Aβ1-40 compared to controls ([2]; 30 μM (FIG. 3)): significantly decreased
concentration of total β-amyloid compared to controls ([2]; 30 μM (FIG. 3)): significantly decreased
concentration of Aβ1-40 compared to controls [2, 3]: significantly decreased
concentration of Aβ1-40 compared to controls [2, 4]: significantly decreased

Structure (SMILES): COc1ccc2cc1Oc1ccc(cc1)C[C@H]1c3cc(c(OC)cc3CCN1C)Oc1c(OC)c(OC)cc3c1[C@H](C2)N(C)CC3 [tetrandine, tetrandrine]
concentration of Aβ1-40 compared to controls ([2]; 5 μM (FIG. 4)): significantly decreased
concentration of total β-amyloid compared to controls ([2]; 5 μM (FIG. 4)): significantly decreased
concentration of Aβ1-40 compared to controls ([2]; 10 μM (FIG. 4)): significantly decreased
concentration of total β-amyloid compared to controls ([2]; 10 μM (FIG. 4)): significantly decreased
concentration of Aβ1-40 compared to controls ([2]; 20 μM (FIG. 4)): significantly decreased
concentration of total β-amyloid compared to controls ([2]; 20 μM (FIG. 4)): significantly decreased
concentration of Aβ1-40 compared to controls ([2]; 30 μM (FIG. 4)): significantly decreased
concentration of total β-amyloid compared to controls ([2]; 30 μM (FIG. 4)): significantly decreased

Structure (SMILES): CC(C)(C)c1cc(C=C(C#N)C#N)cc(C(C)(C)C)c1O [tyrphostin A9]
concentration of Aβ1-40 compared to controls ([2]; 20 μM (FIG. 2)): significantly decreased
concentration of Aβ1-42 compared to controls ([2]; 20 μM (FIG. 2)): significantly decreased
concentration of total β-amyloid compared to controls ([2]; 20 μM (FIG. 2)): significantly decreased
